Measurements taken from BindingDB's records for doi:10.1016/j.ejmech.2014.01.032 (University of Milan, 2014).
pIC50: −log10 of the molar value.

Assay: Inhibition of acetylcholinesterase in rat brain homogenate after 15 mins by Ellman assay

## C[N+](C)(CC#CCOC1=NOCC1)CCCCCCCC[N+](C)(C)CCCN1C(=O)c2ccccc2C1=O
  pIC50: 4.71

## C[N+](C)(CC#CCOC1=NOCC1)CCCCCC[N+]1(C)CCC(N2C(=O)c3cccc4cccc(c34)C2=O)CC1 (stereo unspecified)
  pIC50: 4.64

## C[N+](C)(CC#CCOC1=NOCC1)CCCCCCC[N+](C)(C)CCCN1C(=O)c2ccccc2C1=O
  pIC50: 4.50

## C[N+](C)(CC#CCOC1=NOCC1)CCCCCC[N+](C)(C)CCCN1C(=O)c2cccc3cccc(c23)C1=O
  pIC50: 4.99

## C[N+](C)(CC#CCOC1=NOCC1)CCCCCCCC[N+](C)(C)CCCN1C(=O)c2cccc3cccc(c23)C1=O
  pIC50: 5.00

## CC(C)(CN1C(=O)c2cccc3cccc(c23)C1=O)C[N+](C)(C)CCCCCC[N+](C)(C)CCCN1C(=O)c2ccccc2C1=O [Naphmethonium]
  pIC50: 4.38
